PMC10068418 (Journal of Antimicrobial Chemotherapy, 2023)
Several values for one entry are separate records, joined by “and”; a condition that tells them apart may be missing. Identical values can stand only once. Like-named read-outs stand apart in the source and are kept apart here.

Columns and labels:
[1] = tested on: SARS-CoV-2 hCoV-19/Japan/TY/WK-521 strain; test: microbe, parasite or virus in culture; assay type: cell-based; conditions: read-out: CPE EC50
in vitro [2] = conditions: female, BALB/cAJcl, mouse, serum
SARS-CoV-2 = conditions: Phase 2a and Phase 2b studies; cited from earlier work
in vitro [3] = conditions: male, Syrian, hamster, serum
SARS-CoV-2 Omicron BA.2 = tested on: SARS-CoV-2 Omicron BA.2; design: species or system Syrian hamsters; conditions: hamster, in vivo
[4] = tested on: SARS-CoV-2 Delta strain (hCoV-19/Japan/TY11-927/2021); assay type: cell-based; conditions: read-out: Viral titre EC90
[5] = tested on: SARS-CoV-2 Omicron BA.1 strain (hCoV-19/Japan/TY38-873/2021); assay type: cell-based; conditions: read-out: Viral titre EC90
[6] = Protein binding of nirmatrelvir in hamster serum by equilibrium dialysis; assay type: in vitro ADME, Syrian hamsters; conditions: male, Syrian, pH 7.4
[7] = BALB/cAJcl, mouse, in vivo
[8] = Protein binding of nirmatrelvir in mouse serum by equilibrium dialysis; assay type: in vitro ADME, BALB/cAJcl mice; conditions: female, BALB/cAJcl, pH 7.4
[9] = Severe acute respiratory syndrome coronavirus 2, HEK-293T, 72 h

SMILES: Cn1cnc(Cn2c(=O)[nH]/c(=N\c3cc4cn(C)nc4cc3Cl)n(Cc3cc(F)c(F)cc3F)c2=O)n1 [Ensitrelvir, ensitrelvir fumaric acid]
- EC50 [1, 9]: 0.027 ± 0.002 µM
- fraction unbound (in vitro [2]): 0.024
- Viral titres in nasal lavage fluid (SARS-CoV-2): significantly reduced viral titres
- fraction unbound (in vitro [3]): 0.017
- Antiviral activity in the lungs (viral titres) (SARS-CoV-2 Omicron BA.2): failed to show antiviral activity
- Antiviral activity in the nasal turbinates compared with that of nirmatrelvir (SARS-CoV-2 Omicron BA.2): greater antiviral activity
- Lowering of lung viral titres compared with 750/250 mg/kg nirmatrelvir (SARS-CoV-2 Omicron BA.2): less effective

SMILES: O=c1nc(NO)ccn1[C@@H]1O[C@H](CO)[C@@H](O)[C@H]1O [NHC, β-D-N^4-hydroxycytidine]
- EC50 [1]: 4 ± 3.5 µM
- EC90 [4]: 3.83 µM and 6.72 µM
- EC90 [5]: 2.35 µM and 3.66 µM

SMILES: CC(C)(C)[C@H](NC(=O)C(F)(F)F)C(=O)N1C[C@H]2[C@@H]([C@H]1C(=O)N[C@H](C#N)C[C@@H]1CCNC1=O)C2(C)C [Nirmatrelvir, nirmatrelvir]
- fraction unbound at 24 h, 4 µM [6]: 0.596
- f-C24h unbound drug plasma concentration [7]: 676 ± 609 ng/mL
- f-C72h unbound drug plasma concentration [7]: 1490 ± 430 ng/mL
- t-C24h total plasma concentration [7]: 1010 ± 910 ng/mL
- t-C48h total plasma concentration [7]: 2050 ± 610 ng/mL
- t-C72h total plasma concentration [7]: 2230 ± 650 ng/mL
- EC50 [1, 9]: 0.041 ± 0.013 µM
- fraction unbound at 24 h, 4 µM [8]: 0.669

SMILES: CCC(CC)COC(=O)[C@H](C)N[P@](=O)(OC[C@H]1O[C@@](C#N)(c2ccc3c(N)ncnn23)[C@H](O)[C@@H]1O)Oc1ccccc1 [Remdesivir, remdesivir]
- EC50 [1, 9]: 0.012 ± 0.002 µM
